The values below are quoted from earlier work in publication PMC3563429 (Journal of the American Chemical Society, 2013).

As a reminder, the pIC50 is −log10 of the IC50, conventionally taken in molar units.

The subject of this data set is human calpain protease 1. Particulars: for inhibitory action against the cysteine protease calpain 1: described in the patent literature; for pIC50: read-out: IC50 against human calpain protease 1, previously reported.

pIC50: −log10 of the molar value.

Consider `CCCCCC/C=C\CC(=O)N[C@@H](Cc1ccc(O)cc1)[C@@H](O)CC(=O)N[C@H](C(=O)N[C@@H](CO)[C@@H](O)CC(=O)N[C@H](C(=O)N[C@@H]1C=CC(=O)N[C@@H](C(C)C)C(=O)N(C)[C@@H](Cc2ccc(O)cc2)C(=O)OC1)C(C)C)C(C)C` [Compound 12, thalassospiramide B1], for which the “inhibitory action against the cysteine protease calpain 1” value is recorded as “nanomolar inhibitory action” and the negative logarithm of the IC50 (pIC50) is 7.10.

Regarding “Thalassospiramide D1 [Thalassospiramide D1 (15)]”, the “inhibitory action against the cysteine protease calpain 1” value is “nanomolar inhibitory action” and the negative-log IC50 (pIC50) is 7.41.
